For one experiment, the target named is T1, SUMO (Homo sapiens, UniProt Q9UBT2).
T1 sequence (Q9UBT2 1-640): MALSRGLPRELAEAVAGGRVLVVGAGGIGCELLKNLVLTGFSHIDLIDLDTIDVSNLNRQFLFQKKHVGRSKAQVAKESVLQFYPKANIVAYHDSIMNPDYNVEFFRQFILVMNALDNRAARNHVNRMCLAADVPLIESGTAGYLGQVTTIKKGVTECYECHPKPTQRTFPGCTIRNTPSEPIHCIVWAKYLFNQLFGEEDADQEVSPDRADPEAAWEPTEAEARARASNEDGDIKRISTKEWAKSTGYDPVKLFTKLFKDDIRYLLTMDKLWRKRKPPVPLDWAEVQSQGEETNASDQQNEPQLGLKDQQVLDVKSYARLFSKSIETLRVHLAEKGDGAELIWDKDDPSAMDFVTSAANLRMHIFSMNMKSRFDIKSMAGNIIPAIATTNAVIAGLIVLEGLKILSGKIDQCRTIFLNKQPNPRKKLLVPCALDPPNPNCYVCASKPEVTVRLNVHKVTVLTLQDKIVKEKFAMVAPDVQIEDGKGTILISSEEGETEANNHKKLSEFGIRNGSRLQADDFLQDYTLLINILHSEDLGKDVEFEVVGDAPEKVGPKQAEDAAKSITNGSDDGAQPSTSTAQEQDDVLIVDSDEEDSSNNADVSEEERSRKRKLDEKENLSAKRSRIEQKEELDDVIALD
T1 sequence (Q9UBE0 1-346 partner): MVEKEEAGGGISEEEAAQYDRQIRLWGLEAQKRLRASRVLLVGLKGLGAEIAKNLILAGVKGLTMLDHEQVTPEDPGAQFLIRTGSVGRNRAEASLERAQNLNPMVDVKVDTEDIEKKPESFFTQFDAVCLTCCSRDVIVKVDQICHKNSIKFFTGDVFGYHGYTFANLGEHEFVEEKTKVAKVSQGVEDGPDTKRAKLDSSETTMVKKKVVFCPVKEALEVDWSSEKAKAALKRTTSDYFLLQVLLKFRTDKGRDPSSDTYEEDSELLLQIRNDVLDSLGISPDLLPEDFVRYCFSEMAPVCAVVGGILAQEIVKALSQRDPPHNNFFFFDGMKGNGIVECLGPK
Description: SUMO activity (Table I, biological activities). The experiment is classed as biochemical. On the set-up: key: + (less active); ++ (active); +++ (most active).

The test system of the next experiment is c-Myc. The experiment is described as follows: c-Myc activity (Table I, biological activities). The arrangement: key: + (less active); ++ (active); +++ (most active).
Experiment [1] relates to cancer stem cell (CSC) populations in patient derived xenograft (PDX) models. The experiment is described as follows: Limited dilution assays of cancer stem cell populations in PDX models (FIG. 1). The settings on record: 1 μM to 10 μM. The experiment is classed as cell-based. From the text:
FIG. 1. Examination of the effect of compounds 582 and 588 to reduce cancer stem cell (CSC) populations in patient derived xenograft (PDX) models using limited dilution assays.

The target in another experiment is T2, Nedd8 (Homo sapiens, UniProt Q8TBC4).
T2 sequence (Q8TBC4 1-463): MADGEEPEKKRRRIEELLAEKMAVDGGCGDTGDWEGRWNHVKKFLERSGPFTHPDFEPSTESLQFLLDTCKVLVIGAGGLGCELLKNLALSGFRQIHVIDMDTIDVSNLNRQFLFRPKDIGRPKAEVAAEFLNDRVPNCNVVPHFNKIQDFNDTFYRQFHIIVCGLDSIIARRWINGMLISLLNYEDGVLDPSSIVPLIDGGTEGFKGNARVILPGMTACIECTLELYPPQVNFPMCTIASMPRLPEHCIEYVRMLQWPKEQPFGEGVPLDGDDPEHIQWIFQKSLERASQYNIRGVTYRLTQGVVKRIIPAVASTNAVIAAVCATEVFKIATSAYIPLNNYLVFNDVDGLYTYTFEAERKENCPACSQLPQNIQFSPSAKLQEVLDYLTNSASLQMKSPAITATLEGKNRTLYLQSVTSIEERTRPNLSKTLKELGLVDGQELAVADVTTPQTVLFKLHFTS
T2 sequence (Q13564 1-534 partner): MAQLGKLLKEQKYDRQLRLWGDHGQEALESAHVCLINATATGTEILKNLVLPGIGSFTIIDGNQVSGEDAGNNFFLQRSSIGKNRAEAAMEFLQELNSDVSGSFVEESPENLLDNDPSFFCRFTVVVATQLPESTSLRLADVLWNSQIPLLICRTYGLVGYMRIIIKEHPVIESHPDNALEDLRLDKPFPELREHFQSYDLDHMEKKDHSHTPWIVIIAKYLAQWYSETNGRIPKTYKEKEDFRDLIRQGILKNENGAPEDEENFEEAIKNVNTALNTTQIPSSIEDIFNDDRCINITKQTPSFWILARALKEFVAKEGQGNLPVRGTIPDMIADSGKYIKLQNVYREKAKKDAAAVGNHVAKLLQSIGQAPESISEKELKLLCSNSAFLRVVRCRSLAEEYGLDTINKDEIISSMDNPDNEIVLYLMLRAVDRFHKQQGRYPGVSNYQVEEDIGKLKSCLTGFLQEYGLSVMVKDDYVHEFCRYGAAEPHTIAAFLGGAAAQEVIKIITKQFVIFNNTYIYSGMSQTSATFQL
Description: Nedd8 activity (Table I, biological activities). The arrangement: key: + (less active); ++ (active); +++ (most active). The experiment is classed as biochemical.

For a further experiment, the target named is T3, Ubiquitin (Homo sapiens, UniProt P22314).
T3 sequence (P22314 1-1058): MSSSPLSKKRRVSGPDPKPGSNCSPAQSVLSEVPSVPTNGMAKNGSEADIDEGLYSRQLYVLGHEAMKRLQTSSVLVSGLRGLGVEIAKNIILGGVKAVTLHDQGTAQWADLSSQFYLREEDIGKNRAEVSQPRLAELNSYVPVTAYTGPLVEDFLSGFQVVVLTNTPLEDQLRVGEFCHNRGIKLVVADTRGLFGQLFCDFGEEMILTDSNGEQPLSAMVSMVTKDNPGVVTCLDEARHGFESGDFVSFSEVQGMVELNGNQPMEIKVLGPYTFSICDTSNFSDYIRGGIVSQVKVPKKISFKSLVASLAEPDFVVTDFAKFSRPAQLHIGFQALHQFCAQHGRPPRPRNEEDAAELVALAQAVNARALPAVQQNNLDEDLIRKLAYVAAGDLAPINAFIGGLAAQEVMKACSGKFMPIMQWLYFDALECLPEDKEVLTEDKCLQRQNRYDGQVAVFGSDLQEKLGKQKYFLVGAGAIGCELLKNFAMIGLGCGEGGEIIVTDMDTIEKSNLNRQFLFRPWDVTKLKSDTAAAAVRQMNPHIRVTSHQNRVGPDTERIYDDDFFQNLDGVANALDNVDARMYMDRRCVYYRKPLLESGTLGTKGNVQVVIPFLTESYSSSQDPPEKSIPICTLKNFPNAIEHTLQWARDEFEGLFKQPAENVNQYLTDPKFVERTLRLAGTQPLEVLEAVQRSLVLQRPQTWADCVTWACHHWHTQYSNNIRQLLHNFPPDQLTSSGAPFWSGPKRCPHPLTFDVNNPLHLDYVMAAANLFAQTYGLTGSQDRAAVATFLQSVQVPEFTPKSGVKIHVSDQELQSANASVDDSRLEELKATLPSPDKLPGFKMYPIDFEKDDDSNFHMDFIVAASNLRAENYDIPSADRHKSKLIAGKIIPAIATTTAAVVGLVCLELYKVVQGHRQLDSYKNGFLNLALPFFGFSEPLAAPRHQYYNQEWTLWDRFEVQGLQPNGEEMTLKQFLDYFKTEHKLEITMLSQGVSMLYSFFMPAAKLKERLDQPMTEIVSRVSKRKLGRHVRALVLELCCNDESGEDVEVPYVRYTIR
Description: Ubiquitin activity (Table I, biological activities). The experiment is classed as biochemical. On the set-up: key: + (less active); ++ (active); +++ (most active).

Take `CCOC(=O)C1=C(C(=O)Nc2c(CC)cccc2CC)C2C=CC1(C(Nc1ccccc1)c1ccc(CN3CCOCC3)cc1)O2` (centres unmarked) [Compound 588]: the SUMO result at SUMO is on record as “++”. The c-Myc result in the experiment with c-Myc was “++”. Further, the “inhibition on PDX cancer-initiating-cell (CIC) frequency” value in experiment [1] is “only showed inhibition on CIC at high dose 10 μM”.

For the molecule `COC(=O)C1=C(C(=O)NCCN(C)C)C2C=CC1(C(Cc1ccccc1)Nc1cccc(CO)c1)O2` (centres unmarked) [Compound 535], the SUMO entry on SUMO is reported as “+++”. Further, the Nedd8 result at Nedd8 is “++”. Besides, on Ubiquitin, the Ubiquitin result is recorded as “+”. Also, the c-Myc result with c-Myc is reported as “++”.

For `COC(=O)C1=C(C(=O)Nc2ccc(OCCN(C)C)cc2)C2OC1(C(Cc1ccccc1)Oc1ccccc1)C1OC21` (centres unmarked) [Compound 534], the SUMO result on SUMO is reported as “+”. At Nedd8, the Nedd8 result was “++”. Also, the Ubiquitin entry at Ubiquitin was “+”. For the same molecule, the c-Myc entry with c-Myc is “++”.

Consider `CCOC(=O)C1=C(C(=O)Nc2c(C)cccc2C)C2C=CC1(C(Nc1ccccc1)c1ccc(CN3CCOCC3)cc1)O2` (centres unmarked) [Compound 582], for which the SUMO result at SUMO is on record as “++”. In the experiment on c-Myc, the c-Myc entry is “++”. Besides, the “inhibition on PDX cancer-initiating-cell (CIC) frequency” value in experiment [1] is listed as “dose-dependent inhibition on PDX cancer-initiating-cell (CIC) frequency, even at 1 μM”.

As for `COC(=O)C1=C(C(=O)Nc2ccc(CN(C)C)cc2)C2OC1(C(Cc1ccccc1)Oc1ccccc1)C1OC21` (centres unmarked) [Compound 545], the SUMO entry on SUMO is “++”. Further, on Ubiquitin, the Ubiquitin entry is “+”. Moreover, the c-Myc entry with c-Myc is recorded as “++”.

As to `COC(=O)C1=C(C(N)=O)C2C=CC1(C(Cc1ccccc1)Nc1cccc(CO)c1)O2` (centres unmarked) [Compound 536], the SUMO result at SUMO was “++”. The Nedd8 result at Nedd8 is “++”. The Ubiquitin result on Ubiquitin is on record as “+”.
